What was measured:
[1] = tested on: D4 receptors; conditions: CHO cells expressing D4 receptors
Method: AMP accumulation was measured in intact D4-19 cells plated at a density of 15,000 cells/well in a 24 well plate 48 hours prior to the experiment. The cells were incubated in serum free medium 1 hour prior to the experiment. Fresh medium (0.5 ml) containing 100 μM forskolin, 100 μM IBMX and varying concentrations of drugs were added to each well and cAMP was allowed to accumulate for 15 minutes at 30° C. The reactions were terminated by the removal of the medium and the addition of 100 μl cold 7.5% (TCA) trichloroacetic acid. The samples were diluted by the addition of 1.0 ml 50 mM sodium acetate, pH 6.2 and aliquots were assayed by RIA using Biomedical Technologies Incorporated cAMP RIA kit.
cAMP accumulation was measured in forskolin stimulated cells as described in methods. Dopamine (10 μM) was added to 3 wells (DA). […] The bars are the averages of the three wells expressed as the percentage of the forskolin response.

[2] = tested on: schizophrenics; conditions: unlike other antipsychotic drugs; Casey (1989); cited from earlier work
[3] = target: T1, synthetic D4 receptor (Homo sapiens, UniProt P21917, DEL265-296); assay: (3H)spiperone radioligand binding, membranes of LacI (CHO) cells expressing synthetic D4 receptor (line D4-19); parameters: expressed in transfected cells; conditions: Scatchard transformation of saturation binding; line D4-19, IPTG induced
T1 sequence (P21917 with tags, fused parts or gaps DEL271-302): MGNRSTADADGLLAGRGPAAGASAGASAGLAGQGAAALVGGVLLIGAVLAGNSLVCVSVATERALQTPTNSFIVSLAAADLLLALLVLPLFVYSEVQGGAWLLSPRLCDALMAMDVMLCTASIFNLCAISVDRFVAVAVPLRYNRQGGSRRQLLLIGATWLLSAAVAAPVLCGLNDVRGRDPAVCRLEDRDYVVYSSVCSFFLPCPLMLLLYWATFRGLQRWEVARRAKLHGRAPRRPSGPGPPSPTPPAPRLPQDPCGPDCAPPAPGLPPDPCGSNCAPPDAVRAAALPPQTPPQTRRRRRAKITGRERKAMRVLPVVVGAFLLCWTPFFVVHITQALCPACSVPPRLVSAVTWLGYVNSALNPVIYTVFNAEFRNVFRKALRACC
Method: (§1) LacI synthetic D4 transfected cells were grown in the presence of 100 μM IPTG for 48 hours prior to harvest. Cells grown in 100 mm dishes were rinsed once with 5 mls of ice cold Ca^2+ /Mg^2+ free PBS and scraped into 5 mls of the same buffer. Cells were pelleted (500×g, 5 minutes), and resuspended in 25 mM Tris, 5 mM EDTA, 5 mM EGTA, pH 7.5 (TEE), and frozen in liquid nitrogen. After thawing, the cells were homogenized and centrifuged at 1,000×g to remove nuclei and unbroken cells. The supernatant was centrifuged at 20,000×g, the membrane pellet was washed once with TEE, resuspended in binding buffer, and frozen in liquid nitrogen. Membrane aliquots were stored at -70° C.
(§2) Incubations were for 1 hour at 30° C. Assays were stopped by filtration through Whatman GF/B filters followed by 2×10 ml washes with ice cold 50 mM Tris, pH 7.5. The filters were counted by liquid scintillation spectroscopy.

[4] = target: T1, synthetic D4 receptor; assay: (3H)spiperone radioligand binding, membranes of HEK293 cells expressing synthetic D4 receptor (line D4-24); parameters: expressed in transfected cells; host or cells: HEK293 cells (EBV-based vector pCEP4), line D4-24
Method: Each point is the mean of duplicates with non-specific binding subtracted.
as §1, §2

With `NCCc1ccc(O)c(O)c1` [dopamine] the “inhibition of cAMP accumulation” value ([1]; 10 μM dopamine, forskolin stimulated (FIG. 6)) was “Inhibition of cAMP accumulation”.

For `CN1CCN(C2=Nc3cc(Cl)ccc3Nc3ccccc32)CC1` [clozapine], the “antagonism of dopamine inhibition of cAMP accumulation” value ([1]; 10 μM clozapine with 10 μM dopamine (FIG. 6)) is given as “Antagonism” and the tardive dyskinesia [2] is given as “does not cause tardive dyskinesia”.

With `O=C(CCCN1CCC2(CC1)C(=O)NCN2c1ccccc1)c1ccc(F)cc1` [(^3 H)-spiperone] the Bmax [3] was 260 fmol/mg protein, the “receptor expression over passages (3H-spiperone binding)” value ([4]; D4-24 cells, 540 pM 3H-spiperone, up to at least 12 passages over 10 weeks (FIG. 5)) was “remains constant” and the Bmax ([4]; Scatchard analysis of saturation binding, line D4-24 (FIG. 4)) was 736 fmol/mg protein.
